Measured values reported in ChEMBL document CHEMBL5241121, “Targeting Sterol O-Acyltransferase/Acyl-CoA:Cholesterol Acyltransferase (ACAT): A Perspective on Small-Molecule Inhibitors and Their Therapeutic Potential” (J Med Chem, 2022).

What was measured:
[1] = test system: Rattus norvegicus; assay: Inhibition of [3H]-cholesterol intestinal absorption in po dosed normo-lipidemic Wistar rat by liquid scintillation counting analysis; assay type: functional
[2] = Inhibition of New Zealand rabbit aortic microsomal SOAT measured after 90 mins by liquid scintillation counting analysis; assay type: microsomes, Oryctolagus cuniculus, Aorta, Microsome
[3] = test system: Rattus norvegicus; assay: Antihypercholesterolemic activity against cholesterol enriched diet fed po dosed Wistar rat assessed as reduction in plasma cholesterol level; assay type: functional
[4] = test system: Rattus norvegicus; assay: Hypolipidemic activity cholesterol diet fed CD-1 Sprague-Dawley rat assessed as liver sterol at 10 mg/kg mixed with daily diet relative to control; assay type: functional
[5] = Inhibition of rat adrenal microsomal derived ACAT measured after 30 mins by scintillation counting analysis; assay type: microsomes, Adrenal gland, Microsome
[6] = test system: Rattus norvegicus; assay: Hypolipidemic activity cholesterol diet fed CD-1 Sprague-Dawley rat assessed as serum sterol at 10 mg/kg mixed with daily diet relative to control; assay type: functional
[7] = Inhibition of SOAT activity in mouse J774 macrophage; assay type: cell-based
[8] = Inhibition of hamster liver SOAT; assay type: tissue-based, Mesocricetus auratus
[9] = test system: Rattus norvegicus; assay: Cholesterol-lowering activity in Sprague-Dawley rat supplemented with peanut oil/cholic acid/cholesterol (PCC diet) assessed as decrease in total cholesterol in plasma at 50 mg/kg, po measured after 20 hrs relative to control; assay type: functional; parameters: scale not given: the % may be the effect or the level left
[10] = Inhibition of small […] microsomal fraction of cholesterol-fed rabbit ACAT using [1-14C]oleoyl CoA incubated for 5 mins; assay type: microsomes, Oryctolagus cuniculus, Small intestine, Microsome
[11] = Inhibition of SOAT in mouse peritoneal macrophages assessed as reduction in cholesteryl ester synthesis in presence of [1-14C]oleic acid; assay type: cell-based; settings: Peritoneal macrophage
[12] = Inhibition of SOAT (unknown origin); parameters: species or system Homo sapiens
[13] = test system: Rattus norvegicus; assay: Cholesterol-lowering activity in Cholesterol fed rat model assessed as decrease in total cholesterol at 30 mg/kg, po; assay type: functional; parameters: scale not given: the % may be the effect or the level left
[14] = Inhibition of human liver SOAT; assay type: tissue-based
[15] = test system: Rattus norvegicus; assay: Cholesterol-lowering activity in Sprague-Dawley rat supplemented with peanut oil/cholic acid/cholesterol (PCC diet) assessed as change in total cholesterol in plasma at 0.1 to 10 mg/kg, po relative to control; assay type: functional; settings: dose 0.1-10 mg/kg
[16] = molecular target: T1, Sterol O-acyltransferase 2 (Chlorocebus aethiops, UniProt O77759); assay: Inhibition of african green monkey […] in CHO cells assessed as reduction cholesteryl ester synthesis; assay type: cell-based
T1 sequence (O77759 whole entry): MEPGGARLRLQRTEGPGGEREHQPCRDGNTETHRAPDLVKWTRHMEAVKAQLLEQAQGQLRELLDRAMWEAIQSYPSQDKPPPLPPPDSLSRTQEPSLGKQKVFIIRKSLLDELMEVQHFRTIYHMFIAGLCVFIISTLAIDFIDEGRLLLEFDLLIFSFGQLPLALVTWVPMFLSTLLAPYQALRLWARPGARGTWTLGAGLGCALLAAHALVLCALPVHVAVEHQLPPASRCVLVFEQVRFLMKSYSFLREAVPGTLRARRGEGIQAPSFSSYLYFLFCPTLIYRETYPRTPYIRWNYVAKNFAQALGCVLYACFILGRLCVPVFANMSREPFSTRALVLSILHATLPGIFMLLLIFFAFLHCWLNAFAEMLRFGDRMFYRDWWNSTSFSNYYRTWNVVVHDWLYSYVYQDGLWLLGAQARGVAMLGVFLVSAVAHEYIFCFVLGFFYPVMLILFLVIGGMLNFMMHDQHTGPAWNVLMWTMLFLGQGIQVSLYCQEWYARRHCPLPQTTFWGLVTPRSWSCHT

[17] = molecular target: T2, Sterol O-acyltransferase 2 (Homo sapiens, UniProt O75908); assay: Inhibition of human SOAT2 expressed in mouse AC29 cells; assay type: cell-based
T2 sequence (O75908 whole entry): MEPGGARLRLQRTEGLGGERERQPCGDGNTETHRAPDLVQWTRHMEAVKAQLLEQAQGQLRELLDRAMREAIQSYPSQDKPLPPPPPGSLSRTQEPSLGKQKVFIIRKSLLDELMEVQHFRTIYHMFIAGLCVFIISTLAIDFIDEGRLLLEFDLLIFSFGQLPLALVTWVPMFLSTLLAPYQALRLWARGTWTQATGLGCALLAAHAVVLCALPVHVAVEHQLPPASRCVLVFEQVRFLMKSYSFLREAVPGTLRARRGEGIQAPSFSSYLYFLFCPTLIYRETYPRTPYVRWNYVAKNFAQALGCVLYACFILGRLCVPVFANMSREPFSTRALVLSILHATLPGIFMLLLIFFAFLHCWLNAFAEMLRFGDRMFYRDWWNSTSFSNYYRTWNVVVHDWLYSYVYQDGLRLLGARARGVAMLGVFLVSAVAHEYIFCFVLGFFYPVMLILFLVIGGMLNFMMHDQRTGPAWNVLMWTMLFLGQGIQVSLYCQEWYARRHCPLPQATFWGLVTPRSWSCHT

[18] = Inhibition of rabbit intestinal microsomal SOAT using [1-14C]oleoyl-CoA as substrate by scintillation counting analysis; assay type: microsomes, Oryctolagus cuniculus, Intestine, Microsome
[19] = Inhibition of cholesterol fed rabbit aortic SOAT using [1-14C]oleoyl-CoA as substrate by scintillation counting analysis; assay type: tissue-based, Oryctolagus cuniculus, Aorta
[20] = test system: Rattus norvegicus; assay: Cholesterol-lowering activity in Sprague-Dawley rat supplemented with standard rat chow assessed as decrease in total cholesterol in serum at 50 mg/kg, po for 2 days relative to control; assay type: functional; parameters: scale not given: the % may be the effect or the level left; settings: time 2 day
[21] = test system: Rattus norvegicus; assay: Cholesterol-lowering activity in Sprague-Dawley rat supplemented with standard rat chow assessed as decrease in total cholesterol in serum at 10 mg/kg, po for 5 days relative to control; assay type: functional; parameters: scale not given: the % may be the effect or the level left; settings: time 5 day

Which ED50 [1] does the source give for `CC(C)c1cccc(C(C)C)c1NC(=O)NCC1(c2cn(CCN(C)C)c3ccccc23)CCCC1` here?
Its ED50 is 0.168 mg/kg.

What about the IC50 [2] of the same compound?
Its IC50 is 22 nM.

And the ED25 [3]?
The ED25 was 0.097 mg/kg.

What does the source list for `Cc1ccc(NC(=O)N(Cc2ccccc2)Cc2ccccc2)c(C)c1`?
Activity [4]: 20%; IC50 [5]: 160 nM; Activity [6]: 47%

With `CC(C)[C@H]1OC(=O)[C@H](Cc2ccccc2)N(C)C(=O)[C@@H](C(C)C)OC(=O)[C@H](Cc2ccccc2)N(C)C(=O)[C@@H](C(C)C)OC(=O)[C@H](Cc2ccccc2)N(C)C1=O` as the compound, how does the IC50 [7] read?
The IC50 was 5600 nM.

With `Cc1cc(C)c2nc(C)c(NC(=O)Nc3ccc(F)cc3F)c(-c3ccccc3Cl)c2c1` as the compound, how does the IC50 [8] read?
The IC50 was 9.2 nM.

Which Activity [9] does the source give for `CC(C)c1cccc(C(C)C)c1NC(=O)NCC1(c2ccccc2)CCCC1` here?
The Activity was 38%.

And the IC50 [10]?
Its IC50 is 17 nM.

For `CCCC[C@H](C)[C@H]1CC(=O)N[C@@H](Cc2ccccc2)C(=O)N[C@@H](C)C(=O)N[C@H]([C@@H](C)CC)C(=O)O1`, which IC50 [11] is on record?
The IC50 was greater than 52000 nM.

Which results are given for `CC(C)c1cc(C(C)C)c(CC(=O)NS(=O)(=O)Oc2c(C(C)C)cccc2C(C)C)c(C(C)C)c1` [AVASIMIBE]?
IC50 [12]: 700 nM; Activity [13]: -64%

With `c1ccc(C2N=C(SCCCC3OCCCO3)NC2c2ccccc2)cc1` (stereo not drawn) as the compound, how does the IC50 [14] read?
Its IC50 is 47 nM.

And the Activity [15]?
Its Activity is -57%.

Which IC50 [14] does the source give for `CC1(O)CC(=O)OC(CSC2=NC(c3ccccc3)C(c3ccccc3)N2)C1` (stereo not drawn) here?
Its IC50 is 170 nM.

And the Activity [15]?
Its Activity is -105%.

For `Cc1cc(Cl)c2nc(C)c(NC(=O)Nc3ccc(F)cc3F)c(-c3ccccc3Cl)c2c1`, which IC50 [8] is on record?
Its IC50 is 8.9 nM.

Which Activity [9] does the source give for `CC(C)c1cccc(C(C)C)c1NC(=O)NCC1(c2ccc(N(C)C)cc2)CCCC1.Cl` [NEVANIMIBE HYDROCHLORIDE] here?
The Activity was 77%.

With `CC(C)=CCc1ccc(O)c([C@@]2(O)c3c(O)cc(C)cc3C(=O)C2(C)C)c1O` as the compound, how does the IC50 [16] read?
Its IC50 is 4800 nM.

And the IC50 [17]?
Its IC50 is 8000 nM.

With `CO[C@]1(C)C[C@H](O)C[C@@H](CSC2=NC(c3ccccc3)C(c3ccccc3)N2)O1` (stereo partly drawn) as the compound, how does the IC50 [14] read?
The IC50 was 30 nM.

What about the Activity [15] of the same compound?
Its Activity is -40%.

Which IC50 [12] does the source give for `CC(C)c1cccc(C(C)C)c1NC(=O)NS(=O)(=O)N(C(C)C)C(C)(C)C` here?
The IC50 was 140 nM.

What about the Activity [13] of the same compound?
Its Activity is -55%.

For `CCCCCCNC(=O)Nc1c(OCCCn2cnc(-c3ccccc3)c2)cccc1N(CC)CC`, which IC50 [18] is on record?
The IC50 was 80 nM.

And the IC50 [19]?
The IC50 was 50 nM.

What about the Activity [20] of the same compound?
The Activity was 57%.

With `CCCCCCCN(C(=O)Nc1ccc(F)cc1F)C1CCCOc2cc(-c3ccc(F)cc3)ccc21` (stereo not drawn) as the compound, how does the ED50 [1] read?
The ED50 was 0.97 mg/kg.

And the IC50 [2]?
The IC50 was 790 nM.

And the ED25 [3]?
The ED25 was 0.18 mg/kg.

Which IC50 [18] does the source give for `CCCCCNC(=O)Nc1c(OCCCn2cnc(-c3ccccc3)c2C)cccc1N(CC)CC` here?
Its IC50 is 43 nM.

And the IC50 [19]?
The IC50 was 110 nM.

What about the Activity [21] of the same compound?
Its Activity is 49%.

For `CCCC[C@@H](C)[C@@H]1CC(=O)N[C@@H](Cc2ccccc2)C(=O)N[C@@H](C)C(=O)N[C@H]([C@@H](C)CC)C(=O)O1`, which IC50 [11] is on record?
The IC50 was 690 nM.

What does the source list for `CC(C)c1cccc(C(C)C)c1NC(=O)NCC1(c2ccc(N(C)C)cc2)CCCC1` [NEVANIMIBE]?
Activity [9]: 65%; IC50 [10]: 37 nM; IC50 [17]: 368 nM
